Measurements from patent US10782295B2, “Cysteine-reactive ligand discovery in proteomes” (THE SCRIPPS RESEARCH INSTITUTE, priority 2013, dated 2020).

Legend:
EEF2 = molecular target: T1, EEF2 (Homo sapiens, UniProt P13639); assay: competitive isoTOP-ABPP, MDA-MB-231 soluble proteome; assay type: binding; details: 100 μM LDE, 60 min; peptide STLTDSLVC*K
T1 construct: directly in native proteomes; endogenous in cells; host or cells: MDA-MB-231
Procedure: (§1) Here, we envisioned that isoTOP-ABPP could be advanced to discover and quantify reactions between cysteines in proteomes and any electrophilic compound. In this advanced, ‘competitive’ version of isoTOP-ABPP (FIG. 1a), a proteome is treated with an electrophile (experimental sample) or DMSO (control sample). Both proteomic samples are then labeled with the IA probe and conjugated by CuAAC to light and heavy azide-biotin tags, respectively. The light and heavy samples are then mixed and subjected to our described isoTOP-ABPP protocol for enrichment, identification, and quantification of IA-labeled cysteines^30. Electrophile-modified cysteines are quantified by measuring the MS1 chromatographic peak ratios (R values) for heavy (DMSO-treated) over light (electrophile-treated) samples, with higher R values reflecting greater sensitivity to the electrophile. In this format, competitive isoTOP-ABPP can assay electrophiles against 1000+ cysteines in parallel directly in native proteomes without requiring any chemical modification to the electrophiles themselves.
(§2) Competitive isoTOP-ABPP experiments were performed in quadruplicate using the soluble proteome of the human breast cancer cell line MDA-MB-231 cell line. Proteomes were treated with 100 μM HNE, 15d-PGJ2, or 2-HD, for 60 minutes, followed by the IA-probe (100 μM, 60 min) A total of ˜1400 cysteine reactivities were quantified across the aggregate data set, with at least 900 cysteine reactivities quantified for each LDE (FIG. 2a) more than 750 of which were quantified for all the three electrophiles.
(§3) The MDA-MB-231 cell proteome was treated with varying concentrations of HNE (5, 10, 50, 100 and 500 μM) for 60 min and then the IA-labeling profile of each reaction was quantitatively compared to a DMSO-control sample by isoTOP-ABPP.
(§4) HNE was purchased from EMD biosciences, 15d-PGJ2 was purchased from Cayman Chemicals and 2-HD was purchased from Santa Cruz Biotechnology. Proteome samples were diluted to a 4 mg protein/mL solution in PBS. For each profiling experiment, one aliquot of the proteome sample (0.5 mL) was treated with 100 μM of LDE using 5 μL of a 10 mM stock and the other aliquot was treated with 5 μL of either ethanol (for HNE and 15d-PGJ2) or DMSO (for 2-HD) as control. For the concentration-dependent profiling experiments using HNE, aliquots of the proteomes (0.5 mL each) were treated with 5, 10, 50, 100 and 500 μM of HNE using 5 μL of 0.5, 1.0, 5, 10 and 50 mM of stock solution, respectively. After 60 minutes of treatment at room temperature, both the LDE-treated and control aliquots were passed through a NAP-5 Sephadex column (GE healthcare) to remove any unreacted LDE. The volume of each aliquot was increased to 1 mL with the concentration at 2 mg/mL after this step.
(§5) Each of the control and LDE-treated proteome samples (˜2 mg protein/mL in 1 mL volume) was treated with 100 μM of IA-probe using 10 μL of a 10 mM stock in DMSO. The labeling reactions were incubated at room temperature for 1 hour. Click chemistry (acetylene-azide cycloaddition) was performed by the addition of 100 μM of either the Heavy-TEV-Tag (for the control sample) or Light-TEV-Tag (for the LDE-treated sample) (20 μL of a 5 mM stock), 1 mM TCEP (fresh 50× stock in water), 100 μM ligand (17× stock in DMSO:t-Butanol 1:4) and 1 mM CuSO4 (50× stock in water). Samples were allowed to react at room temperature for 1 hour. After the click chemistry step, the light and heavy-labeled samples were mixed together and centrifuged (5900×g, 4 min, 4° C.) to pellet the precipitated proteins.
(§6) The pellets were washed twice in cold MeOH, after which the pellet was solubilized in PBS containing 1.2% SDS via sonication and heating (5 min, 80° C.). Samples were subjected to streptavidin enrichment of probe-labeled proteins, sequential on-bead trypsin and TEV digestion, and liquid chromatography-mass spectrometry (LC-MS) analysis according to the published isoTOP-ABPP protocol^30. […]

RTN4 = molecular target: T2, RTN4 (Homo sapiens, UniProt Q9NQC3); assay: as above; assay type: binding; details: 100 μM LDE, 60 min; peptide YSNSALGHVNC*TIK
T2 construct: directly in native proteomes; endogenous in cells; host or cells: MDA-MB-231
T2 sequence (Q9NQC3 1-1192): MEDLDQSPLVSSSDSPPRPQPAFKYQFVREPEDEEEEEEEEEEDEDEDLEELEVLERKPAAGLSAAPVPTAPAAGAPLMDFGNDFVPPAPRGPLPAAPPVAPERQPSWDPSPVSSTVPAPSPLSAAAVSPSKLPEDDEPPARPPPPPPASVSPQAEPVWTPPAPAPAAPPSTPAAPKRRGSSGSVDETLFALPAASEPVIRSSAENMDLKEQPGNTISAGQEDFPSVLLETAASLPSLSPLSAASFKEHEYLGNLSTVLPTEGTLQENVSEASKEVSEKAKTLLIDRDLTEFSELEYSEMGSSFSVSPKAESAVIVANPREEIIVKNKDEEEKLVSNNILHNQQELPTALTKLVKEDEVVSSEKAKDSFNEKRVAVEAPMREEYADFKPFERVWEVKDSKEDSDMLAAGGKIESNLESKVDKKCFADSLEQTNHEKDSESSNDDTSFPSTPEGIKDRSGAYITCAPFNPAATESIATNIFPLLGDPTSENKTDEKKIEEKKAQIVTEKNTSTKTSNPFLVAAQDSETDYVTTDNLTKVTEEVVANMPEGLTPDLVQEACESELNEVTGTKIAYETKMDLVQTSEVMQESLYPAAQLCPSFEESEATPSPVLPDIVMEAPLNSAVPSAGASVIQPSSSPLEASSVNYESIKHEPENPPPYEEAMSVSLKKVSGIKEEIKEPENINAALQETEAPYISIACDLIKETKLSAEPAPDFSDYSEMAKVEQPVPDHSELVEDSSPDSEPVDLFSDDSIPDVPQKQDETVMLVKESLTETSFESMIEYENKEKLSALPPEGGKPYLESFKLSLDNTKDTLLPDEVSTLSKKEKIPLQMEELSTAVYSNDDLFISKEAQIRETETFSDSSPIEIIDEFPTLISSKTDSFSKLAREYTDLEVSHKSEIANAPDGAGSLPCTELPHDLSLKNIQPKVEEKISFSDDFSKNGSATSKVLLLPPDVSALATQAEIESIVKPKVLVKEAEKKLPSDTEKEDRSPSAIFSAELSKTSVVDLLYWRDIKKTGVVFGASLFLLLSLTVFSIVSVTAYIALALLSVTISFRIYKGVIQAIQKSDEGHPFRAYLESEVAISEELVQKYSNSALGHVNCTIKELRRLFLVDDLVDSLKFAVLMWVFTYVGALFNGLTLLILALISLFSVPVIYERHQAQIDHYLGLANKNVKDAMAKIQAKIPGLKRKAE
Procedure: as §1, §2, §3, §4, §5, §6

SMILES	R value (isoTOP-ABPP ratio heavy/light) for IA-labeled cysteine of EEF2 (EEF2)	R value (isoTOP-ABPP ratio heavy/light) for IA-labeled cysteine of RTN4 (RTN4)
CCCCCC(O)/C=C/C=O (stereo not drawn) [4-HNE, 4-Hydroxynonenal]	11.63	11.78
CCCCCCCCCCCCC/C=C/C=O [2-HD, 2-trans-hexadecenal]	1.06	1.1
CCCCC/C=C/C=C1/C(=O)C=C[C@@H]1C/C=C\CCCC(=O)O [PGJ2, 15-deoxy-Δ12,14-prostaglandin J2]	3.31	2.93
